Source: patent publication US6429291B1, “Hyaluronan receptor protein” (priority 1994, dated 2002)

Columns and labels:
p34^cdc2 = assay: Western blot of p34^cdc2 protein expression; type: cell-based, murine
Description: For Western blot analysis, C3 cells in 100 mm dishes were washed 2× in PBS and then lysed in 0.25 ml ice cold buffer containing 50 mM β-glycerophosphate (pH 7.3), 1% Nonidet p-40, 10 mM NaF, 1% aprotinin and 1 mM Sodium Vanadate. The lysates were centrifused at 30,000 g for 20 min at 4° C. Protein concentration was determined by Biorad protein assay kit. Proteins were resolved on 10% SDS-polyacrylamide gels and transferred to nitrocellulose membranes in a Tris-Cl buffer containing 25 mM Tris, 192 mM Glycine and 20% (v/v) methanol, pH 8.3 at 100V for 1 hour at 4° C. Filters were incubated with antibody to p34^cdc2 (1:5000 dilution of polyclonal rabbits antiserum raised against the C-terminal peptide (LDNQIKKM) (SEQ ID NO:58) of Human […] protein) and developed with horseradish peroxidase-conjugated goat antibody to rabbit immunoglobulin G (sigma). Blotting was visualized by enhanced chomilumineacence Western blotting system (Amersham) following manufacturer's instruction.

C3 cells [1] = assay: Experimental metastasis assay of treated C3 cells (tail vein); type: in vivo, syngeneic C3H/HeN mice
Description: C3 cells were serum starved, then cultured in presence of serum and GST or GST-HM for 48-hours and released from the substratum in Hanks. For assessing the tumorigenicity of the treated cells, 3×10^5 viable cells were injected subcutaneously into the right hind leg of syngeneic C3H/HeN Mice. The mice were maintained for 6-8 weeks after which tumors were removed, weighed and pieces processed for histology using conventional paraffin embedding techniques. […] The mice were maintained for 16-18 days, euthanased and their lungs were stained by Boulin solution (picric acid, formaldehyde and acetic acid [15:5.:1]), removed and metastatic foci were counted under dissecting microscope.

C3 cells [2] = assay: Growth analysis (cell density assay); type: cell-based, murine
Description: Cell density assay was carried out by seeding 5×10^4 cells in 60 mm dishes. Cells were cultured in DMEM supplemented with 10% FCS. At each point, cells were harvested by trypsinization and cell concentrations were determined by counting cells by trypan blue exclusion method.

[3] = HA binding transblot assay with biotinylated HA
Description: For the HA-binding assay, cell lysates were separated on SDS-PAGE, transblotted onto nitrocellulose membranes, then blots were incubated with biotinylated HA instead of primary antibody (Yang et al., 1993). Streptavidin-peroxidase conjugate (Sigma) was used as a second antibody, and blots were processed as above.

C3 cells [4] = assay: Cell cycle analysis by flow cytometry; type: cell-based, murine; details: serum starved, then serum stimulated; 5 μg/ml GST-RHAMM
Description: For cell cycle analysis, cells of the ras-transformed fibroblast cell line C3 were harvested and fixed with 70% ethanol. The fixed cells were denatured by 2N HCl containing 0.5% Triton X-100 at RT for 30 min and then neutralized by treatment with 0.1 M Na2B4O7, pH 8.5. Total DNA content was detected by propidium iodide staining. The stained cells were analyzed by flow cytometry using a Coulter Electronics Inc. EPICS 753 cell sorter and PARA1 cell cycle analysis software.

C3 cells [5] = assay: Tumorigenicity of treated C3 cells injected subcutaneously; type: in vivo, syngeneic C3H/HeN mice
Description: C3 cells were serum starved, then cultured in presence of serum and GST or GST-HM for 48-hours and released from the substratum in Hanks. For assessing the tumorigenicity of the treated cells, 3×10^5 viable cells were injected subcutaneously into the right hind leg of syngeneic C3H/HeN Mice. The mice were maintained for 6-8 weeks after which tumors were removed, weighed and pieces processed for histology using conventional paraffin embedding techniques. For experimental metastasis assays, 4×10^3 treated cells were injected into the tail vein of syngeneic C3H/HeN mice. The mice were maintained for 16-18 days, euthanased and their lungs were stained by Boulin solution (picric acid, formaldehyde and acetic acid [15:5.:1]), removed and metastatic foci were counted under dissecting microscope.

C3 fibroblasts = assay: Cell locomotion assay, timelapse image analysis of C3 fibroblasts; type: cell-based, murine
Description: For motility experiments, 10^5 cells were subcultured into 25 cm^2 tissue culture flasks (Corning), and maintained for 12 h as above. The medium was then aspirated, cells were rinsed with Hanks Balanced Salt Solution (HBSS) (Gibco) and fresh, serum-free α-MEM containing 4.0 μg/ml transferrin (Gibco) and 2.0 μg/ml insulin (Sigma) (defined medium) was added to the flasks.
Cell locomotion was recorded using a computerized timelapse analysis system (Image 1, Universal Imaging Corporation, Westchester, Pa.) that measures nuclear displacement. During the filming period, cells were maintained at 37° C. in defined-media at physiological pH.
A 10 amino acid peptide corresponding to one of the HA binding domains of RHAMM, peptide^aa423-432 (Yang et al., 1993), was synthesised and added at various concentrations (0,0.1, 1.0, 5.0, 10.0 and 50.0 ng/ml) to 70% confluent C3 fibroblasts. Cell locomotion was monitored by image analysis for 2 h from the addition of the peptide. A scrambled peptide was used as control.
RHAMM-GST fusion protein prepared and purified as described in (b) above was added at concentrations of 1 pg/ml, 1 ng/ml, 1 μg/ml and 1 mg/ml to 70% confluent C3 cultures and cell locomotion was monitored by image analysis for 2 h from protein addition as described in Example 5.
For each experiment, 30 cells were tracked every 10 min for a 1 hr period.
RHAMM-GST fusion protein, as described in (d) above, and deleted/mutated RHAMM-GST fusion protein, as described in (h) above were added at 5 ng/ml to subconfluent cultures of C3 cells and cell locomotion was monitored by image analysis for 2 h from protein addition as described in Example 5.

cdc2 mRNA = cdc2 mRNA Northern blot, nuclear run-on and mRNA stability; type: cell-based, murine; details: actinomycin D 20 μg/ml for stability
Description: Total cellular RNA was extracted by a rapid RNA isolation method using Trizol reagent (GIBCO) as per manufacturer's instructions. For half-life measurements, transcription was inhibited by addition of 20 ug/ml actinomycin D. RNA was isolated at different times and analyzed for cdc2 gene expression. 20 ug of total cellular RNA was electrophoresed through 1% formamide-agarose gels and blotted onto Nytran membranes. The blots were prehybridized and probed with random primer 32p-labelled murine cdc2 cDNA (Paul Nurse). Loading of RNA was determined by probing with glyceraldehyde-3-phosphate dehyrogenase (GAPDH) cDNA. Autoradiography was done by Phosphoimager SF (Molecular Dynamics) using storage phosphor imaging.
Nuclear run-on assay was performed using 32P-labelled RNA to probe filter-bound cdc2 and GAPDH single strand cDNA inserts. Quantification of transcription was determined by scanning phosphor images using Multiquant software program (Molecular Dynamics).

[6] = treated cells that did form tumours

RHAMM-GST fusion protein: RHAMM II cDNA cloned into pGEX-2T and expressed as soluble glutathione S-transferase-RHAMM fusion protein
p34^cdc2 expression (p34^cdc2; 10 μg/ml): greatly reduced | effect on p34^cdc2 expression (p34^cdc2; range of concentrations): dose dependent inhibition | Expt. Metastases, Frequency (C3 cells [1]; i.v. injection of 4 × 10^5 treated cells): 3/4 | Expt. Metastases, No. (C3 cells [1]; i.v. injection of 4 × 10^5 treated cells, lung foci): <10 | metastatic capability of C3 cells (C3 cells [1]; pre-treatment of cells): greatly reduced the metastatic capability | effect on cell proliferation (C3 cells [2]; 5 μg/ml GST-RHAMM): decrease in cell proliferation | fate of treated cells (C3 cells [2]; RHAMM-treated C3 cells): proceeded to cell death | binding to biotinylated HA [3]: showed binding to biotinylated HA | effect on cell cycle (C3 cells [4]): arrested and accumulated in G2/M phase | Tumorigenicity, Frequency (C3 cells [5]; C3 cells treated 48 hours before s.c. injection of 3 × 10^5 cells): 2/4 | Tumorigenicity, Latency (C3 cells [5]; s.c. injection of 3 × 10^5 treated cells): 22 days | Tumorigenicity, Tumor size Day 25 (C3 cells [5]; s.c. injection of 3 × 10^5 treated cells, Day 25): 90 ± 0.7 mm² | latency compared to controls (C3 cells [5]; [6]): increased | ultimate tumour size compared to controls (C3 cells [5]; [6]): reduced | reduction of incidence of tumours (C3 cells [5]; treatment of C3 cells prior to inoculation): 50% | concentration at which cell locomotion was significantly inhibited (C3 fibroblasts; 70% confluent C3, 2 h): ≥ 1 ng/mL | effect on cell locomotion (C3 fibroblasts; C3 fibroblasts, result in words): effective inhibitor of cell motility | reduction of locomotion (C3 fibroblasts; at 1 ng/ml, p<0.0001): 40% | reduction in locomotion (C3 fibroblasts; concentrations as low as 1 ng/ml): 3.5 fold | effect on cdc2 mRNA (cdc2 mRNA): degradation of cdc2 mRNA without alteration of transcription
